Measured values from patent US5281626A, “Benzenesulfonamide derivatives” (Eisai Co., Ltd., priority 1990, dated 1994).

What was measured:
[1] = test system: phospholipase A2 (PLA2) contained in the membrane fraction of rabbit heart; experiment: Inhibitory activity against phospholipase A2 (PLA2) contained in the membrane fraction of rabbit heart; type: biochemical; details: CaCl2 added, 37° C., 30 minutes
Experimental: (§1) A. Inhibitory activity against phospholipase A2 (PLA2) contained in the membrane fraction of rabbit heart or the supernatant fraction thereof (method) An NZW male rabbit was anesthetized by the intravenous administration of pentobarbital sodium to take out its heart. This heart was washed with ice cooled physiological saline to recover a ventricle, followed by the addition of ice-cooled 0.25M sucrose/20 mM tris hydrochloride buffer (pH: 8.0) in an amount of 5 ml per g of the ventricle. The obtained mixture was mashed with a homogenizer in ice water for 30 minutes and centrifuged at 1,000 g for 10 min. The supernatant was further centrifuged at 105,000 g for 60 min. The centrifugation was conducted at 0° to 4° C. The obtained supernatant was used as such as the supernatant fraction for examination. The precipitate was suspended in the same buffer as that described above and used as the membrane fraction for examination. The protein concentrations of these fractions were each adjusted to 5 mg/ml as determined by Lowry method. […] The test tubes of the membrane fraction were kept at 37° C. for 30 minutes for incubation, while those of the supernatant fraction were kept at 37° C. for 5 minutes for incubation. Each incubation was stopped by the addition of 1 ml of Dole reagent. […] The amount of ^14 C was determined with a liquid scintillation counter. Mepacrine was selected as a comparative compound. (Results)

[2] = test system: phospholipase A2 (PLA2) contained in the supernatant fraction of rabbit heart; experiment: Inhibitory activity against phospholipase A2 (PLA2) contained in the supernatant fraction of rabbit heart; type: biochemical; details: EGTA added, 37° C., 5 minutes
Experimental: as §1

male SD rats = experiment: Toxicity test, intravenous; type: in vivo; details: 50 mg/kg intravenously, three male SD rats per group, observed for 3 hours
Experimental: A small amount of 1N HCl was added to each of the compounds of Examples 4, 6, 7, 8 and 15 to form aqueous solutions. These solutions were each intravenously administered to the groups of three male SD rats of 7 weeks of age in a dose of 50 mg/kg. […] No rat died.

[3] = test system: cardiac infarct size of rat; experiment: Influence on the cardiac infarct size of rat (ligation of the coronary artery); type: in vivo; details: 1 mg/kg through the tail vein 15 minutes prior to ligation; 3 hours of ligation
Experimental: B. Influence on the cardiac infarct size of rat
Sixty-one male rats (weight : 220 to 300 g) were made to get myocardial ischemia by the ligation of the coronary artery. After 3 hours from the ligation, hearts were taken out of the rats and cut into round slices to obtain preparations. These preparations were stained with […]. The area unstained therewith was regarded as a cardiac infarction nidus and the area ratio of the nidus to the left ventricle was determined by the image analysis and regarded as the cardiac infarct size.
The cardiac infarct size was reduced as compared with that of the control rat by 21% or 20% by the administration of the compound of Example 4 or 6 through the tail vein in a dose of 1 mg/kg before 15 minutes prior to the ligation of the coronary artery.

Row | PLA2 -inhibitory activity IC30, membrane fraction [1] [µM] | PLA2 -inhibitory activity IC30, supernatant fraction [2] [µM] | Compound | mortality (male SD rats) | reduction of cardiac infarct size as compared with control rat [3] [%]
1 |  |  | CN(C(=O)/C=C/c1ccc(S(C)(=O)=O)cc1)c1ccc(S(=O)(=O)N2CCCN(CCc3ccccc3)CC2)cc1 [Example 7, (E)-N-methyl-N-{4-[4-(2 phenylethyl)-homopiperazinyl]sulfonylphenyl}-3-(4-methylsulfonylphenyl)-2-propenamide] | No rat died | 
2 | 0.055 | > 100 | CN(C(=O)/C=C/c1ccc(S(C)(=O)=O)cc1)c1ccc(S(=O)(=O)N2CCCN(Cc3ccccc3)CC2)cc1 [Example 21, (E)-N-methyl-N-[4-(4-benzyl-1-homopiperazinyl)sulfonylphenyl]-3-(4-methylsulfonylphenyl)-2-propenamide] |  | 
3 | 0.050 | > 100 | CN(C(=O)/C=C/c1ccc(S(C)(=O)=O)cc1)c1ccc(S(=O)(=O)N2CCN(CCc3ccccc3)CC2)cc1 [Example 22, (E)-N methyl-N-{4-[4-(2-phenylethyl)-piperazinyl]sulfonylphenyl}-3-(4-methylsulfonylphenyl)-2-propenamide] |  | 
4 | 0.16 | 68 | CN(C(=O)/C=C/c1ccc(C#N)cc1)c1ccc(S(=O)(=O)NC2CCCCCC2)cc1 [Example 25, N-cycloheptyl-4-{N-methyl-N-[(E)-3-(4-cyanophenyl)-2-propenoyl]amino}benzenesulfonamide] |  | 
5 | 0.24 | 59 | CN(C(=O)/C=C/c1ccc(C#N)cc1)c1ccc(S(=O)(=O)NC2CCN(Cc3ccccc3)CC2)cc1 [Example 26, N-(1-benzyl-4-piperidyl)-4-{N-methyl-N-[(E)-3-(4-cyanophenyl)-2-propenoyl]amino}benzenesulfonamide] |  | 
6 | 0.45 | 90 | CN(C(=O)/C=C/c1ccc(-n2ccnc2)cc1)c1ccc(S(=O)(=O)NC2CCCCCC2)cc1 [Example 29] |  | 
7 | 0.66 | > 100 | CN(C(=O)/C=C/c1ccc(-n2ccnc2)cc1)c1ccc(S(=O)(=O)NC2CCCCCCC2)cc1 [Example 30, N-cyclooctyl-4-{N-methyl-N-[(E)-3-[4-(1-imidazolyl)phenyl]-2-propenoyl]amino}benzenesulfonamide] |  | 
8 | 0.12 | 29 | CN(C(=O)/C=C/c1ccc([N+](=O)[O-])cc1)c1ccc(S(=O)(=O)NC2CCCCCC2)cc1 [Example 38, N-cycloheptyl-4-{N-methyl-N-[(E)-3-(4-nitrophenyl)-2-propenoyl]amino}benzenesulfonamide] |  | 
9 | 0.98 | 46 | CN(C(=O)/C=C/c1ccc(O)cc1)c1ccc(S(=O)(=O)NC2Cc3ccccc3C2)cc1 [Example 41, N-(2-indanyl)-4-{N-methyl-N-[(E)-3-(4-dihydroxyphenyl)-2-propenoyl]amino}benzenesulfonamide] |  | 
10 | 3.49 | 62 | CN(C(=O)/C=C/c1ccc(O)c(F)c1)c1ccc(S(=O)(=O)NC2CCCCCC2)cc1 [Example 43] |  | 
11 | 5.1 | 39 | CN(C(=O)/C=C/C=C/c1cc(Br)c(O)c(Br)c1)c1ccc(S(=O)(=O)NC2CCCCCC2)cc1 [Example 44, N-cycloheptyl-4-{N-methyl-N-[(2E, 4E)-5-(3,5-dibromo-4-hydroxyphenyl) -2,4-pentadienoyl]amino}benzenesulfonamide] |  | 
12 | 1.7 | 32 | CN(C(=O)/C=C/C=C/c1ccc(O)c(O)c1)c1ccc(S(=O)(=O)NC2CCc3ccccc3C2)cc1 (centres unmarked) [Example 48] |  | 
13 | 1.8 | 56 | CN(C(=O)/C=C/c1ccc(O)c(O)c1)c1ccc(S(=O)(=O)NC2CCCCCC2)cc1 [Example 49, N-cycloheptyl-4-{N-methyl-N-[(E)-3-(3,4-dihydroxyphenyl)-2-propenoyl]amino}benzenesulfonamide] |  | 
14 | 1.05 | 38 | CN(C(=O)/C=C/C=C/c1ccc(O)c(O)c1)c1ccc(S(=O)(=O)NC2CCCCCC2)cc1 [Example 50, N-cycloheptyl-4-{N-methyl N-[(2E, 4E)-5-(3,4-dihydroxyphenyl)-2,4-pentadienoyl]amino}benzenesulfonamide] |  | 
15 | 1.5 | 64 | CN(C(=O)/C=C/c1ccc(O)c(O)c1)c1ccc(S(=O)(=O)NC2CCCCC2)cc1 [Example 58, N-cyclohexyl-4-{N-methyl-N-[(E)-3-(3,4-dihydroxyphenyl)-2-propenoyl]amino}benzenesulfonamide] |  | 
16 | 20 | > 100 | NS(=O)(=O)c1ccc(NC(=O)/C=C/c2ccc(O)c(O)c2)cc1 [Example 77] |  | 
17 | 0.03 | > 100 | COc1ccc(CCN2CCC(NS(=O)(=O)c3ccc(N(C)C(=O)/C=C/c4ccc(S(C)(=O)=O)cc4)cc3)CC2)cc1OC [Example 79] |  | 
18 | 0.044 | > 100 | Cc1cccc(CCN2CCC(NS(=O)(=O)c3ccc(N(C)C(=O)/C=C/c4ccc(S(C)(=O)=O)cc4)cc3)CC2)n1 [Example 81, N-[1-(2-(6-methyl-2-pyridyl)ethyl]-4-piperidyl-4-{N-methyl-N-(E)-3-(4-methylsulfonylphenyl)-2-propenoyl]amino}benzenesulfonamide] |  | 
19 | 0.62 | 46 | CN(C(=O)/C=C/c1ccc(O)cc1)c1ccc(S(=O)(=O)NC2CCCCCC2)cc1 [Example 86, N-cycloheptyl-4-{N-methyl-N-[(E)-3-(4-hydroxyphenyl)-2-propenoyl]amino}benzenesulfonamide] |  | 
20 | > 100 | > 100 | CCN(CC)CCCC(C)Nc1c2ccc(Cl)cc2nc2ccc(OC)cc12 (centres unmarked) [mepacrine, reference compound] |  | 

Row | Compound | PLA2 -inhibitory activity IC30, membrane fraction [1] [µM] | PLA2 -inhibitory activity IC30, supernatant fraction [2] [µM] | mortality (male SD rats) | reduction of cardiac infarct size as compared with control rat [3] [%]
21 | CN(C(=O)/C=C/c1ccc(S(C)(=O)=O)cc1)c1ccc(S(=O)(=O)NC2CCCCN(Cc3ccccn3)C2)cc1 (racemic) [Example 8, (±)N-[1-(2-pyridylmethyl)-3-hexamethyleneimino]-4 {N methyl-N-[(E)-3-(4-methylsulfonylphenyl)-2-propenoyl]amino}benzenesulfonamide] | 0.029 | > 100 | No rat died | 
22 | CN(C(=O)/C=C/c1ccc(S(C)(=O)=O)cc1)c1ccc(S(=O)(=O)NC2CCN(Cc3ccccc3)CC2)cc1 [Example 4, N-(1-benzyl-4-piperidyl)-4-(N-methyl [(E)-3-(4-methylsulfonylphenyl)-2-propenoyl]amino}benzenesulfonamide] | 0.032 | > 100 | No rat died | 21
23 | Cc1cccc(CCN(C)S(=O)(=O)c2ccc(N(C)C(=O)/C=C/c3ccc(S(C)(=O)=O)cc3)cc2)n1 [Example 6, N-methyl N-[2-(6-methyl-2-pyridyl)ethyl]-4-{N-methyl-N-[(E)-3-(4-methylsulfonylphenyl)-2-propenoyl]amino}benzenesulfonamide] | 0.056 | > 100 | No rat died | 20
24 | Cc1cccc(CCNS(=O)(=O)c2ccc(N(C)C(=O)/C=C/c3ccc(S(C)(=O)=O)cc3)cc2)n1 [Example 15, N-[2-(6-methyl-2-pyridyl)ethyl]-4-{N-methyl-N-[(E)-3-(4-methylsulfonylphenyl)-2-propenoyl]amino}benzenesulfonamide] | 0.081 | 61 | No rat died | 
